# Results reported in PubChem BioAssay AID504661 (Broad Institute, 2011).
# Active and inactive are the calls of the source. No rule for the calls is given here.
# System: P. falciparum 3D7 ACP-GFP apicoplast imaging, 4 days
# Experiment: loss of apicoplast ACP-GFP localization – imaging, 3D7 ACP-GFP strain, mechanism study for antimalarial project, late-stage follow-up (AID 504661)
# Conditions: stronger effect = higher value
smiles,measurement,setting,value
C[C@@H]1CN([C@@H](C)COC(=O)C(C)(C)C)C(=O)c2cc(NC(=O)Nc3ccccc3)ccc2O[C@@H](C)CCCCO[C@H]1CN(C)S(=O)(=O)c1ccc(F)cc1,apicoplast disruption,at 16 nM,17.2% (inactive)
Cc1noc(C)c1NC(=O)Nc1ccc2c(c1)C(=O)N([C@@H](C)CO)C[C@@H](C)[C@H](CN(C)S(=O)(=O)c1ccc(F)cc1)OCCCC[C@H](C)O2,apicoplast disruption,at 2000 nM,21% (inactive)
COc1ccc(COC[C@H](C)N2C[C@@H](C)[C@H](CN(C)S(=O)(=O)c3ccc(F)cc3)OCCCC[C@H](C)Oc3ccc(NC(=O)Nc4ccccc4)cc3C2=O)cc1,apicoplast disruption,at 3.2 nM,16.1% (inactive)
COCCOC(=O)N(C)C[C@@H]1OCCCC[C@H](C)Oc2ccc(NC(=O)Nc3ccccc3)cc2C(=O)N([C@@H](C)CO)C[C@H]1C,apicoplast disruption,at 50000 nM,13.7% (inactive)
